Data reported in US11339171B2, “MDM2 inhibitors” (Gan & Lee Pharmaceuticals, priority 2017, dated 2022).

Assays:
MDM2 = target: T1, MDM2 (Homo sapiens, UniProt Q00987); assay: Inhibition test of MDM2-P53 (GST-MDM2, Biotin-P53, Anti-GST-Tb, SA-XL665); assay type: binding
T1 construct: made in house
Method in brief: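 Compounds, serially diluted 5-fold (twelve concentrations), were shaken for 90 min at 25° C with a mix of GST-MDM2 (4 nM final), Biotin-P53, anti-GST-Tb and SA-XL665. Buffer: 1×PBS, 0.1% BSA, 5 mM DTT, 1 mM AEBSF; signal read on a microplate reader.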

[1] = system: human osteosarcoma cell line SJSA-1; assay: Inhibition of proliferation of human osteosarcoma cell line SJSA-1 (DAPI staining, In Cell Analyzer); settings: Homo sapiens, SJSA-1, 72 h, read-out: IC50 (nM), inhibitory activity on proliferation of human osteosarcoma cell line SJSA-1, SJSA-1, incubated 72 h
Protocol: 2.2 Experiment Preparation:
2.2.1 Preparation of a culture medium for human osteosarcoma cell line SJSA-1: RPMI1640+10% FBS+1% penicillin/streptomycin
2.2.2 Preparation of a test compound solution:
a. the test compound solution with a certain concentration was taken, and diluted with the culture medium to obtain a compound solution with a final concentration of 20 μM;
b. 200 μL of a culture medium containing 0.2% DMSO (dimethyl sulfoxide) was added into H2-H10 of a 96-well plate; 300 μl of the above solution was added into H1; and
c. 100 μL was taken out from well H1, added into H2, and mixed well; then 100 μl of the resultant solution was taken and added into H3, and dilution was carried out in sequence until H9 to obtain the 3-fold serial dilution of the test compound.
2.3 Experimental Process:
2.3.1 SJSA-1 cells were inoculated into a 96-well cell plate with black transparent bottom at 4000 cells/100 μl/well, and cultured overnight at 37° C.;
2.3.3 Fixation: the cell plate was taken out, the culture medium was removed, and 50 μL of 4% paraformaldehyde solution was added to each well to fix for 10 min;
2.3.4 50 μl of 0.1 M glycine was added to neutralize for 10 min;
2.3.5 Washing was performed with 1×PBS (phosphate buffer solution pH7.2) twice;
2.3.6 Permeabilization: 50 μL of 0.2% TritonX-100 (Triton) was added per well, and permeabilization was carried out at room temperature for 10 min;
2.3.7 Washing was performed with 1×PBS (phosphate buffer solution pH7.2) twice;
2.3.9 Washing was performed with 1×PBS (phosphate buffer solution pH7.2) for three times; and
2.3.10 Scanning and analysis were performed by In cell analyzer.
The inhibition rate of each compound at each concentration point was calculated according to the following formula, and curve fitting was performed by GraphPad Prism 6.0 software to obtain the IC50 value.

T1 sequence (Q00987 whole entry): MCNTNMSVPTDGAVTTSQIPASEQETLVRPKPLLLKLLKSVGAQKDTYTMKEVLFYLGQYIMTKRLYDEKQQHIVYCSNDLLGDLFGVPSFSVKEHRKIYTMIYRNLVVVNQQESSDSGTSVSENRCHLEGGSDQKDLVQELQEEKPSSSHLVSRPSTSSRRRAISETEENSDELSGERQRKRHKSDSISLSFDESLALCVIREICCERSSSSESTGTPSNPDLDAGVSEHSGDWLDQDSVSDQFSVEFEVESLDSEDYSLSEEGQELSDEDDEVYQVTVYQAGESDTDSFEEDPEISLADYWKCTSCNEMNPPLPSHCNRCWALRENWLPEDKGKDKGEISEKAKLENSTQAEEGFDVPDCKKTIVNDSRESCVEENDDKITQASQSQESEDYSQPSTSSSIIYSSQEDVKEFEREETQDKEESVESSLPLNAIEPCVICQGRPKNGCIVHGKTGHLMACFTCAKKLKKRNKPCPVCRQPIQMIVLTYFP

| SMILES | IC50 (MDM2) [nM] | IC50 [1] [nM] |
| --- | --- | --- |
| CCOc1ccc(-c2nc3c(n2C(C)C)[C@@]2(C(=O)Nc4cc(Cl)ccc42)N(c2cc(Cl)ccc2C)C3=O)c(OC)n1 [Example S-146, (S)-6-chloro-5′-(5-chloro-2-methylphenyl)-2′-(6-ethoxy-2-methoxypyridin-3-yl)-3′-isopropyl-3′H-spiro[dihydroindole-3,4′-pyrrolo[3,4-d]imidazole]-2,6′(5′H)-dione] | 5.44 | 67.8 |
| COc1nc(OCC(F)F)ncc1-c1nc2c(n1C(C)C)[C@@]1(C(=O)Nc3cc(Cl)ccc31)N(c1cc(Cl)ccc1C)C2=O [Example S-147, (S)-6-chloro-5′-(5-chloro-2-methylphenyl)-2′-(2-(2,2-difluoroethoxy)-4-methoxypyrimidin-5-yl)-3′-isopropyl-3′H-spiro[dihydroindole-3,4′-pyrrolo[3,4-d]imidazole]-2,6′(5′H)-dione] | 5.89 | 271 |
| COc1cc(OCCO)ccc1-c1nc2c(n1C(C)C)[C@@]1(C(=O)Nc3cc(Cl)ccc31)N(c1cc(Cl)ccc1C)C2=O [Example S-148, (S)-6-chloro-5′-(5-chloro-2-methylphenyl)-2′-(4-(2-hydroxyethoxy)-2-methoxyphenyl)-3′-isopropyl-3′H-spiro[dihydroindole-3,4′-pyrrolo[3,4-d]imidazole]-2,6′(5′H)-dione] | 1.58 | 71.8 |
| COc1nc(C(C)C)ccc1-c1nc2c(n1C(C)C)[C@@]1(C(=O)Nc3cc(Cl)ccc31)N(c1cc(Cl)ccc1C)C2=O [Example S-149, (S)-6-chloro-5′-(5-chloro-2-methylphenyl)-3′-isopropyl-2′-(6-isopropyl-2-methoxypyridin-3-yl)-3′H-spiro[dihydroindole-3,4′-pyrrolo[3,4-d]imidazole]-2,6′(5′H)-dione] | 18.5 | 153 |
| COc1cc(OC(F)F)ncc1-c1nc2c(n1C(C)C)[C@@]1(C(=O)Nc3cc(Cl)ccc31)N(c1cc(Cl)ccc1C)C2=O [Example S-150, (S)-6-chloro-5′-(5-chloro-2-methylphenyl)-2′-(6-(difluoromethoxy)-4-methoxypyridin-3-yl)-3′-isopropyl-3′H-spiro[dihydroindole-3,4′-pyrrolo[3,4-d]imidazole]-2,6′(5′H)-dione] | 1.93 | 80.5 |
| COc1cc(C(F)(F)F)ncc1-c1nc2c(n1C(C)C)[C@@]1(C(=O)Nc3cc(Cl)ccc31)N(c1cc(Cl)cnc1C)C2=O [Example S-152, (S)-6-chloro-5′-(5-chloro-2-methylpyridin-3-yl)-3′-isopropyl-2′-(4-methoxy-6-(trifluoromethyl)pyridine-3-yl)-3′H-spiro[dihydroindole-3,4′-pyrrolo[3,4-d]imidazole]-2,6′(5′H)-dione] | 0.78 | 79.8 |
| COc1cc(OCC(F)F)ncc1-c1nc2c(n1C(C)C)[C@@]1(C(=O)Nc3cc(Cl)ccc31)N(c1cc(Cl)ccc1C)C2=O [Example S-153, (S)-6-chloro-5′-(5-chloro-2-methylphenyl)-2′-(6-(2,2-difluoroethoxy)-4-methoxypyridin-3-yl)-3′-isopropyl-3′H-spiro[dihydroindole-3,4′-pyrrolo[3,4-d]imidazole]-2,6′(5′H)-dione] | 0.49 | 22 |
| COc1cc(C)ncc1-c1nc2c(n1C(C)C)[C@@]1(C(=O)Nc3cc(Cl)ccc31)N(c1cc(Cl)ccc1C)C2=O [Example S-154, (S)-6-chloro-5′-(5-chloro-2-methylphenyl)-3′-isopropyl-2′-(4-methoxy-6-methylpyridin-3-yl)-3′H-spiro[dihydroindole-3,4′-pyrrolo[3,4-d]imidazole]-2,6′(5′H)-dione] | 0.9 | 22 |
| COc1cc(N(C)C)ncc1-c1nc2c(n1C(C)C)[C@@]1(C(=O)Nc3cc(Cl)ccc31)N(c1cc(Cl)cnc1C)C2=O [Example S-155, (S)-6-chloro-5′-(5-chloro-2-methylpyridin-3-yl)-2′-(6-(dimethylamino)-4-methoxypyridin-3-yl)-3′-isopropyl-3′H-spiro[dihydroindole-3,4′-pyrrolo[3,4-d]imidazole]-2,6′(5′H)-dione] | 0.95 | 14.6 |
| COc1nc(N(C)C)ccc1-c1nc2c(n1C(C)C)[C@@]1(C(=O)Nc3cc(Cl)ccc31)N(c1cc(Cl)ccc1C)C2=O [Example S-157, (S)-6-chloro-5′-(5-chloro-2-methylphenyl)-2′-(6-(dimethylamino)-2-methoxypyridin-3-yl)-3′-isopropyl-3′H-spiro[dihydroindole-3,4′-pyrrolo[3,4-d]imidazole]-2,6′(5′H)-dione] | 3.81 | 16.7 |
| COc1ncc(-c2nc3c(n2C(C)C)[C@@]2(C(=O)Nc4cc(Cl)ccc42)N(c2ccc(C#N)c(Cl)c2)C3=O)c(OC)n1 [Example S-158, (S)-2-chloro-4-(6-chloro-2′-(2,4-dimethoxypyrimidin-5-yl)-3′-isopropyl-2,6′-dioxo-3′,6′-dihydro-5′H-spiro[dihydroindole-3,4′-pyrrolo[3,4-d]imidazole]-5′-yl)benzonitrile] | 4.07 | 550 |
| COc1ncc(-c2nc3c(n2C(C)C)[C@@]2(C(=O)Nc4cc(Cl)ccc42)N(c2ccc(OC(F)(F)F)c(Cl)c2)C3=O)c(OC)n1 [Example S-161, (S)-6-chloro-5′-(3-chloro-4-(trifluoromethoxy)phenyl)-2′-(2,4-dimethoxypyrimidin-5-yl)-3′-isopropyl-3′H-spiro[dihydroindole-3,4′-pyrrolo[3,4-d]imidazole]-2,6′(5′H)-dione] | 8.09 | 557 |
| COc1cc(N(C)CCO)ccc1-c1nc2c(n1C(C)C)[C@@]1(C(=O)Nc3cc(Cl)ccc31)N(c1cc(Cl)ccc1C)C2=O [Example S-162, (S)-6-chloro-5′-(5-chloro-2-methylphenyl)-2′-(4-((2-hydroxyethyl)(methyl)amino)-2-methoxyphenyl)-3′-isopropyl-3′H-spiro[dihydroindole-3,4′-pyrrolo[3,4-d]imidazole]-2,6′(5′H)-dione] | 2.07 | 14.9 |
| COc1cc(OCCF)ncc1-c1nc2c(n1C(C)C)[C@@]1(C(=O)Nc3cc(Cl)ccc31)N(c1cc(Cl)ccc1C)C2=O [Example S-163, (S)-6-chloro-5′-(5-chloro-2-methylphenyl)-2′-(6-(2-fluoroethoxy)-4-methoxypyridin-3-yl)-3′-isopropyl-3′H-spiro[dihydroindole-3,4′-pyrrolo[3,4-d]imidazole]-2,6′(5′H)-dione] | 1.36 | 126 |
| COc1cc(C(C)C)ncc1-c1nc2c(n1C(C)C)[C@@]1(C(=O)Nc3cc(Cl)ccc31)N(c1cc(Cl)ccc1C)C2=O [Example S-164, (S)-6-chloro-5′-(5-chloro-2-methylphenyl)-3′-isopropyl-2′-(6-isopropyl-4-methoxypyridin-3-yl)-3′H-spiro[dihydroindole-3,4′-pyrrolo[3,4-d]imidazole]-2,6′(5′H)-dione] | 0.94 | 16.8 |
| COc1cc(C(C)C)ncc1-c1nc2c(n1C(C)C)[C@@]1(C(=O)Nc3cc(Cl)ccc31)N(c1cc(Cl)cnc1C)C2=O [Example S-166, (S)-6-chloro-5′-(5-chloro-2-methylpyridin-3-yl)-3′-isopropyl-2′-(6-isopropyl-4-methoxypyridin-3-yl)-3′H-spiro[dihydroindole-3,4′-pyrrolo[3,4-d]imidazole]-2,6′(5′H)-dione] | 1.88 | 38.1 |
| COc1nc(OCCF)ncc1-c1nc2c(n1C(C)C)[C@@]1(C(=O)Nc3cc(Cl)ccc31)N(c1cc(Cl)cnc1C)C2=O [Example S-170, (S)-6-chloro-5′-(5-chloro-2-methylpyridin-3-yl)-2′-(2-(2-fluoroethoxy)-4-methoxypyrimidin-5-yl)-3′-isopropyl-3′H-spiro[dihydroindole-3,4′-pyrrolo[3,4-d]imidazole]-2,6′(5′H)-dione] | 1.86 | 131 |
| COc1nc(OCCF)ncc1-c1nc2c(n1C(C)C)[C@@]1(C(=O)Nc3cc(Cl)ccc31)N(c1cccc(Cl)c1)C2=O [Example S-171, (S)-6-chloro-5′-(3-chlorophenyl)-2′-(2-(2-fluoroethoxy)-4-methoxypyrimidin-5-yl)-3′-isopropyl-3′H-spiro[dihydroindole-3,4′-pyrrolo[3,4-d]imidazole]-2,6′(5′H)-dione] | 2.86 | 379 |
| COc1nc(C(C)C)ncc1-c1nc2c(n1C(C)C)[C@@]1(C(=O)Nc3cc(Cl)ccc31)N(c1cc(Cl)ccc1C)C2=O [Example S-172, (S)-6-chloro-5′-(5-chloro-2-methylphenyl)-3′-isopropyl-2′-(2-isopropyl-4-methoxypyrimidin-5-yl)-3′H-spiro[dihydroindole-3,4′-pyrrolo[3,4-d]imidazole]-2,6′(5′H)-dione] | 4.15 | 53.3 |
| COc1cc(OCCF)ncc1-c1nc2c(n1C(C)C)[C@@]1(C(=O)Nc3cc(Cl)ccc31)N(c1cc(Cl)cnc1C)C2=O [Example S-173, (S)-6-chloro-5′-(5-chloro-2-methylpyridin-3-yl)-2′-(6-(2-fluoroethoxy)-4-methoxypyridin-3-yl)-3′-isopropyl-3′H-spiro[dihydroindole-3,4′-pyrrolo[3,4-d]imidazole]-2,6′(5′H)-dione] | 1.39 | 217 |
| COc1nc(C2CC2)ncc1-c1nc2c(n1C(C)C)[C@@]1(C(=O)Nc3cc(Cl)ccc31)N(c1cc(F)cc(Cl)c1)C2=O [Example S-174, (S)-6-chloro-5′-(3-chloro-5-fluorophenyl)-2′-(2-cyclopropyl-4-methoxypyrimidin-5-yl)-3′-isopropyl-3′H-spiro[dihydroindole-3,4′-pyrrolo[3,4-d]imidazole]-2,6′(5′H)-dione] | 4.12 | 93.5 |
